Source: patent US20260216174A1, “TREATMENT OF ER+ BREAST CANCER COMPRISING HOMOLOGOUS RECOMBINATION DEFICIENCY USING PARG INHIBITOR” (IDEAYA BIOSCIENCES, INC., priority 2023, published 2026)

Key:
[1] = test system: HBCx-34 tumor; experiment: Patient-derived xenograft (PDX) study with HBCx-34; assay type: in vivo, Athymic Nude-Foxn1^nu mice; conditions: HBCx-34 PDX
Method: Female Athymic Nude-Foxn1^nu mice with an established growing HBCx-34 tumor between 108 and 288 mm^3 were randomized into 4 treatment groups of 10 mice each, according to the groups listed in Table 7A, tumor-bearing mice receive estrogen diluted in drinking water (β-estradiol, 8.5 mg/l), from the date of tumor implant to the end of the study. In Table 7A, the abbreviation “p.o.” refers to oral administration, the abbreviation “QD” refers to administration once a day, and the abbreviation “BID” refers to administration twice a day.
Tumors were measured and mice were weighed twice per week during the experimental period. The tumor volume (mm^3) was estimated using the formula: tumor volume (TV)=a×b2/2, where “a” and “b” were the long and the short diameter of a tumor, respectively. The TVs were used to calculate tumor growth inhibition (TGI, an indicator of antitumor activity) using the formula TGI %: (1−{T/T0/Ct/C0}/1−{C0/Ct})×100 where Tt=median tumor volume of treated at time t, T0=median tumor volume of treated at time 0, Ct=median tumor volume of control at time t and C0=median tumor volume of control at time 0. […] Tumor regression represents tumor volume less than the initial tumor volume on DO.
Female Athymic Nude-Foxn1^nu mice with an established growing HBCx-34 tumor between 108 and 288 mm^3 were randomized into 2 treatment groups of 8 mice each, according to the groups listed in Table 8A, tumor-bearing mice receive estrogen diluted in drinking water (β-estradiol, 8.5 mg/l), from the date of tumor implant to the end of the study. In Table 8A, the abbreviation “p.o.” refers to oral administration, the abbreviation “QD” refers to administration once a day.
Tumors were measured and mice were weighed twice per week during the experimental period. The tumor volume (mm^3) was estimated using the formula: tumor volume (TV)=a×b2/2, where “a” and “b” were the long and the short diameter of a tumor, respectively. The TVs were used to calculate tumor growth inhibition (TGI, an indicator of antitumor activity) using the formula TGI %: (1−{T/T0/Ct/C0}/1−{C0/Ct})×100 where Tt=median tumor volume of treated at time t, T0=median tumor volume of treated at time 0, Ct=median tumor volume of control at time t and C0=median tumor volume of control at time 0. […] Tumor regression represents tumor volume less than the initial tumor volume at DO.

[2] = test system: HBCx-22 tumor; experiment: Patient-derived xenograft (PDX) study with HBCx-22; assay type: in vivo, Athymic Nude-Foxn1^nu mice; conditions: HBCx-22 PDX; for Regressions (%) / TGI (%) D42: Day 42
Method: Female Athymic Nude-Foxn1^nu mice with an established growing HBCx-22 tumor between 108 and 288 mm^3 were randomized into 4 treatment groups of 10 mice each, according to the groups listed in Table 5A, tumor-bearing mice receive estrogen diluted in drinking water (β-estradiol, 8.5 mg/l), from the date of tumor implant to the end of the study. In Table 5A, the abbreviation “p.o.” refers to oral administration, the abbreviation “QD” refers to administration once a day, and the abbreviation “BID” refers to administration twice a day.
Tumors were measured and mice were weighed twice per week during the experimental period. The tumor volume (mm^3) was estimated using the formula: tumor volume (TV)=a×b2/2, where “a” and “b” were the long and the short diameter of a tumor, respectively. The TVs were used to calculate tumor growth inhibition (TGI, an indicator of antitumor activity) using the formula TGI %: (1−{T/T0/Ct/C0}/1−{C0/Ct})×100 where Tt=median tumor volume of treated at time t, T0=median tumor volume of treated at time 0, Ct=median tumor volume of control at time t and C0=median tumor volume of control at time 0. […] Tumor regression represents tumor volume less than the initial tumor volume on D0.
Female Athymic Nude-Foxn1^nu mice with an established growing HBCx-22 tumor between 108 and 288 mm^3 were randomized into 5 treatment groups of 8 mice each, according to the groups listed in Table 6A, tumor-bearing mice receive estrogen diluted in drinking water (β-estradiol, 8.5 mg/l), from the date of tumor implant to the end of the study. In Table 6A, the abbreviation “p.o.” refers to oral administration, the abbreviation “QD” refers to administration once a day, and the abbreviation “BID” refers to administration twice a day.
Tumors were measured and mice were weighed twice per week during the experimental period. The tumor volume (mm^3) was estimated using the formula: tumor volume (TV)=a×b2/2, where “a” and “b” were the long and the short diameter of a tumor, respectively. The TVs were used to calculate tumor growth inhibition (TGI, an indicator of antitumor activity) using the formula TGI %: (1−{T/T0/Ct/C0}/1−{C0/Ct})×100 where Tt=median tumor volume of treated at time t, T0=median tumor volume of treated at time 0, Ct=median tumor volume of control at time t and C0=median tumor volume of control at time 0. […] Robust and statistically significant tumor growth inhibition was observed starting at a dose of 30 mpk with 4/8 as shown in Table 6B. Tumor regression represents tumor volume less than the initial tumor volume at DO.

[3] = Compound A study, 30 mg/kg QD p.o.
[4] = Compound A study, 100 mg/kg QD p.o.
[5] = 100 mg/kg twice daily (200 mg/kg/day)

C[C@H]1CN(c2cc(S(=O)(=O)NC3(C)CC3)cc3c2cnn3-c2nnc(C(F)F)s2)C[C@H](C)N1 [Compound A, 1-(5-(difluoromethyl)-1,3,4-thiadiazol-2-yl)-4-((3S,5S)-3,5-dimethylpiperazin-1-yl)-N-(1-methylcyclopropyl)-1H-indazole-6-sulfonamide]
Regressions (%) ([1]; 100 mg/kg QD p.o., Day 45): 100% | TGI (%) D45 ([1]; 100 mg/kg QD p.o., Day 45): 110% | partial regression (mice) ([1]; Compound A study, 100 mg/kg): all mice achieving partial regression | Regressions (%) ([2]; 3 mg/kg QD p.o.): 0% | TGI (%) D42 ([2]; 3 mg/kg QD p.o.): 0.1% | Regressions (%) ([2]; 10 mg/kg QD p.o.): 0% | TGI (%) D42 ([2]; 10 mg/kg QD p.o.): 31.8% | Regressions (%) [2, 3]: 50% | TGI (%) D42 [2, 3]: 83.4% | Regressions (%) [2, 4]: 62% | TGI (%) D42 [2, 4]: 108.5% | tumor regression (mice) ([2]; Compound A study, 30 mpk): 4/8

CC(C)C(=O)N1CCN(c2cc(S(=O)(=O)NC3(C#N)CC3)cc3c2cnn3-c2nnc(C(F)F)s2)C[C@H]1C [Compound B]
Regressions (%) ([1]; 30 mg/kg QD p.o., Day 35): 10% | TGI (%) D35 ([1]; 30 mg/kg QD p.o., Day 35): 77% | partial regression (mice) ([1]; 30 mg/kg once daily): 1/10 | tumor stabilization ([1]; 30 mg/kg once daily): tumor stabilization for all mice | TGI (%) D35 ([1]; 100 mg/kg BID p.o. (200 mg/kg/day), Day 35): 106% | Regressions (%) ([1]; 100 mg/kg BID p.o., Day 35): 80% | Regressions (%) ([1]; 100 mg/kg QD p.o., Day 35): 80% | TGI (%) D35 ([1]; 100 mg/kg QD p.o., Day 35): 103% | partial tumor regression (mice) ([1]; 100 mg/kg once daily): 8/10 | partial tumor regression (mice) [1, 5]: 8/10 | Regressions (%) ([2]; 30 mg/kg QD p.o.): 10% | TGI (%) D42 ([2]; 30 mg/kg QD p.o.): 58.6% | partial regressions (mice) ([2]; 30 mg/kg once daily): 1/10 | tumor stabilization ([2]; 30 mg/kg once daily): tumor stabilization for all mice | TGI (%) D42 ([2]; 100 mg/kg BID p.o. (200 mg/kg/day)): 110.4% | Regressions (%) ([2]; 100 mg/kg BID p.o.): 60% | Regressions (%) ([2]; 100 mg/kg QD p.o.): 30% | TGI (%) D42 ([2]; 100 mg/kg QD p.o.): 97.3% | partial tumor regression (mice) ([2]; 100 mg/kg once daily): 3/10 | partial tumor regression (mice) [2, 5]: 6/10
